In the NIST ThermoML archive (doi:10.1016/j.jct.2012.02.011):

Test: relative permittivity at various frequencies (dimensionless); xn = mol fraction of the nth substance listed
Settings: 101.33 kPa, Liquid, Frequency=3 MHz, OH-301

CCCCOCCO [2-butoxyethan-1-ol] + O=[N+]([O-])c1ccccc1
relative permittivity
Settings | 293.15 K | 298.15 K | 303.15 K | 308.15 K | 313.15 K
x2 = 0 | 9.78 | 9.35 | 8.88 | 8.39 | 7.91
x2 = 0.05 | 12.73 | 11.87 | 11.04 | 10.26 | 9.54
x2 = 0.0999 | 15.28 | 14.32 | 13.35 | 12.37 | 11.45
x2 = 0.2003 | 19.6 | 18.58 | 17.59 | 16.63 | 15.76
x2 = 0.3 | 23.44 | 22.39 | 21.39 | 20.42 | 19.59
x2 = 0.4 | 27 | 25.85 | 24.78 | 23.77 | 22.92
x2 = 0.5 | 30.19 | 28.96 | 27.82 | 26.74 | 25.84
x2 = 0.6 | 32.88 | 31.6 | 30.44 | 29.34 | 28.49
x2 = 0.7 | 34.91 | 33.59 | 32.5 | 31.36 | 30.53
x2 = 0.7493 | 35.71 | 34.34 | 33.12 | 32.06 | 31.22
x2 = 0.8 | 36.29 | 34.85 | 33.69 | 32.47 | 31.69
x2 = 0.8506 | 36.65 | 35.21 | 33.91 | 32.79 | 31.92
x2 = 0.9 | 36.77 | 35.26 | 33.96 | 32.85 | 32.04
x2 = 0.9499 | 36.52 | 35.09 | 33.86 | 32.84 | 32.1

CCOCCO [2-ethoxyethan-1-ol] + O=[N+]([O-])c1ccccc1
relative permittivity
Settings | 293.15 K | 298.15 K | 303.15 K | 308.15 K | 313.15 K
x2 = 0 | 14.25 | 14.03 | 13.76 | 13.44 | 13.07
x2 = 0.0499 | 16.23 | 15.75 | 15.23 | 14.71 | 14.17
x2 = 0.0997 | 18.22 | 17.59 | 16.95 | 16.29 | 15.64
x2 = 0.2 | 21.92 | 21.16 | 20.41 | 19.67 | 18.98
x2 = 0.3002 | 25.24 | 24.4 | 23.54 | 22.77 | 22
x2 = 0.4001 | 28.2 | 27.24 | 26.32 | 25.46 | 24.66
x2 = 0.5 | 30.85 | 29.8 | 28.81 | 27.95 | 27.13
x2 = 0.6003 | 33.21 | 32.07 | 31.07 | 30.15 | 29.38
x2 = 0.7 | 34.94 | 33.75 | 32.71 | 31.81 | 31.04
x2 = 0.7491 | 35.66 | 34.39 | 33.29 | 32.33 | 31.52
x2 = 0.7996 | 36.11 | 34.77 | 33.6 | 32.6 | 31.76
x2 = 0.8504 | 36.37 | 35 | 33.73 | 32.69 | 31.81
x2 = 0.9001 | 36.43 | 34.99 | 33.69 | 32.64 | 31.79
x2 = 0.9456 | 36.26 | 34.87 | 33.66 | 32.67 | 31.9

CCCOCCO [2-propoxyethanol] + O=[N+]([O-])c1ccccc1
relative permittivity
Settings | 293.15 K | 298.15 K | 303.15 K | 308.15 K | 313.15 K
x2 = 0 | 11.76 | 11.5 | 11.19 | 10.91 | 10.62
x2 = 0.0497 | 14.29 | 13.73 | 13.13 | 12.57 | 12.02
x2 = 0.1008 | 16.55 | 15.87 | 15.15 | 14.52 | 13.88
x2 = 0.2 | 20.53 | 19.71 | 18.92 | 18.2 | 17.54
x2 = 0.3004 | 24.06 | 23.14 | 22.27 | 21.5 | 20.81
x2 = 0.4 | 27.18 | 26.2 | 25.26 | 24.45 | 23.7
x2 = 0.5 | 30.06 | 28.98 | 27.97 | 27.11 | 26.32
x2 = 0.6008 | 32.56 | 31.43 | 30.36 | 29.47 | 28.73
x2 = 0.6997 | 34.55 | 33.33 | 32.27 | 31.35 | 30.61
x2 = 0.7489 | 35.32 | 34.05 | 32.96 | 32.01 | 31.26
x2 = 0.8 | 35.94 | 34.57 | 33.43 | 32.48 | 31.69
x2 = 0.8499 | 36.33 | 34.95 | 33.75 | 32.73 | 31.91
x2 = 0.9004 | 36.49 | 35.1 | 33.86 | 32.83 | 32.03
x2 = 0.9488 | 36.3 | 34.95 | 33.8 | 32.85 | 32.14

O=[N+]([O-])c1ccccc1 [nitrobenzene] + COCCO
relative permittivity
Settings | 293.15 K | 298.15 K | 303.15 K | 308.15 K | 313.15 K
x1 = 0.0505 | 19.13 | 18.51 | 17.93 | 17.37 | 16.82
x1 = 0.1011 | 20.66 | 19.96 | 19.31 | 18.66 | 18.05
x1 = 0.2003 | 23.41 | 22.63 | 21.89 | 21.19 | 20.56
x1 = 0.3003 | 25.97 | 25.12 | 24.31 | 23.59 | 22.96
x1 = 0.4002 | 28.41 | 27.45 | 26.59 | 25.84 | 25.16
x1 = 0.4998 | 30.69 | 29.62 | 28.69 | 27.94 | 27.22
x1 = 0.5997 | 32.75 | 31.57 | 30.58 | 29.81 | 29.09
x1 = 0.7001 | 34.4 | 33.23 | 32.18 | 31.31 | 30.59
x1 = 0.752 | 35.1 | 33.87 | 32.8 | 31.91 | 31.17
x1 = 0.8004 | 35.62 | 34.35 | 33.24 | 32.3 | 31.54
x1 = 0.8491 | 36.03 | 34.74 | 33.57 | 32.61 | 31.8
x1 = 0.8974 | 36.21 | 34.89 | 33.72 | 32.76 | 32
x1 = 0.9502 | 36.26 | 34.94 | 33.8 | 32.88 | 32.2
x1 = 1 | 35.91 | 34.78 | 33.84 | 33.13 | 32.66
